Test results from patent publication US20250282759A1, “POLYMORPHIC AND SALT FORMS OF THE AUTOTAXIN INHIBITOR CUDETAXESTAT” (Sabre Therapeutics LLC, priority 2022, published 2025).
Entries after “also recorded” stand apart in the source; their conditions may differ.

Legend:
Format in all cases: physicochemical
[1] = Form E exposed to ambient condition; conditions: 5 hours
[2] = Competitive slurry of Form A and Form C of Compound 1; conditions: 2 days
Source text: The obtained solids were isolated for XRPD analysis.

[3] = Physical and chemical stability under 25° C./60% RH and 40° C./75% RH; conditions: for degradation and/or form change: 25° C./60% RH and 40° C./75% RH, one week; for Stability results (Open for 1 week) Form change: XRPD; for Initial Purity (area %): before storage
Description: Stability measurements were analyzed with a Waters H-Class ultra-performance liquid chromatography (UPLC) system using the conditions and parameters listed below.
Approximately 20 mg of a solid sample of each crystalline form was added to a HPLC vial (open dish) and then stored under 25° C./60% RH or 40° C./75% RH. After one week, the samples were removed from the test conditions and analyzed by HPLC and XRPD to assess chemical and physical stability, respectively.

[4] = Dynamic Vapor Sorption (DVS); conditions: for moisture uptake / hygroscopicity: 25° C./80% RH; for hygroscopicity: DVS
Description: Dynamic Vapor Sorption (DVS) analysis was conducted using a SMS (Surface Measurement Systems) DVS Intrinsic analyzer using the parameters listed below. [table]

Row | SMILES | form transfer on exposure to ambient condition [1] | XRPD Result ([2]; Acetone, water activity 0.0, room temperature) | XRPD Result ([2]; Acetone/H2O (605:395), water activity 0.8, room temperature) | XRPD Result ([2]; Acetone/H2O (858:142), water activity 0.6, room temperature) | XRPD Result ([2]; Acetone/H2O (950:50), water activity 0.4, room temperature) | XRPD Result ([2]; Acetone/H2O (986:14), water activity 0.2, room temperature) | XRPD Result ([2]; H2O, water activity 1.0, room temperature) | degradation and/or form change [3] | Stability results (Open for 1 week) Appearance ([3]; 25° C./60% RH) | Stability results (Open for 1 week) Purity (area %) ([3]; 25° C./60% RH) | Stability results (Open for 1 week) Form change ([3]; 25° C./60% RH) | Stability results (Open for 1 week) Appearance ([3]; 40° C./75% RH) | Stability results (Open for 1 week) Purity (area %) ([3]; 40° C./75% RH) | Stability results (Open for 1 week) Form change ([3]; 40° C./75% RH) | Initial Purity (area %) [3] | moisture uptake [4] | hygroscopicity [4] | hygroscopicity ([4]; listed as crystalline Form 1) | form change after DVS test ([4]; after DVS test)
1 | CCCn1cc(-n2c(Cl)c(Sc3cccc(C(=O)O)c3F)c3ccc(Cl)c(F)c32)cn1 [Form E] | transferred back to Form A; also recorded: Freeform Type E transferred to freeform Type A after |  |  |  |  |  |  |  |  |  |  |  |  |  |  |  |  |  | 
2 | CCCn1cc(-n2c(Cl)c(Sc3cccc(C(=O)O)c3F)c3ccc(Cl)c(F)c32)cn1 [Form A + Form C] |  | Form C | Form A | Form A | Form C | Form C | Form A |  |  |  |  |  |  |  |  |  |  |  | 
3 | CCCn1cc(-n2c(Cl)c(Sc3cccc(C(=O)O)c3F)c3ccc(Cl)c(F)c32)cn1 [Form 1 of Compound 1-A] |  |  |  |  |  |  |  | no significant degradation and/or form change | No | 99.73 area % | No | No | 99.73 area % | No | 99.79 area % | 0.32% | slightly hygroscopic | slightly hygroscopic; also recorded: non-hygroscopic | 
4 | CCCn1cc(-n2c(Cl)c(Sc3cccc(C(=O)O)c3F)c3ccc(Cl)c(F)c32)cn1 [Form A] |  |  |  |  |  |  |  | no significant degradation and/or form change | No | 99.82 area % | No | No | 99.75 area % | No | 99.78 area % |  |  |  | 
5 | CCCn1cc(-n2c(Cl)c(Sc3cccc(C(=O)O)c3F)c3ccc(Cl)c(F)c32)cn1 [Form 3 of Compound 1-B] |  |  |  |  |  |  |  | no significant degradation and/or form change | No | 99.72 area % | No | No | 99.73 area % | No | 99.77 area % | 0.1% | non-hygroscopic |  | No form change
